Source: US6441195B1, “Substituted sulphonylamino(thio) carbonyl compounds” (Bayer Aktiengesellschaft, priority 1995, dated 2002)

Assays:
Assay type in all cases: in vivo
Soya beans = assay: Pre-emergence test/Greenhouse, Soya beans; conditions: in vivo
How it was run: (§1)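 Seeds sown in normal soil were watered about 24 h later with an aqueous emulsion of compound (solvent plus emulsifier), keeping water volume per area constant so dose is set by application rate per unit area. Damage was rated after three weeks as % versus untreated control (0% = no action).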

Lolium = assay: Pre-emergence test/Greenhouse, Lolium; conditions: after three weeks
How it was run: as §1

Poa = assay: Pre-emergence test/Greenhouse, Poa; conditions: after three weeks
How it was run: as §1

Ambrosia = assay: Pre-emergence test/Greenhouse, Ambrosia; conditions: after three weeks
How it was run: as §1

weeds = assay: Pre-emergence test (greenhouse), activity against weeds; conditions: in words
How it was run: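 Compound formulated in acetone with alkylaryl polyglycol ether emulsifier, diluted in water, and watered onto soil about 24 h after sowing, dosed by application rate per unit area. Damage rated after three weeks as % versus untreated control (0% = no action).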

Maize = assay: Pre-emergence test/Greenhouse, Maize; conditions: in vivo
How it was run: as §1

Matricaria = assay: Pre-emergence test/Greenhouse, Matricaria; conditions: after three weeks
How it was run: as §1

Solanum = assay: Pre-emergence test/Greenhouse, Solanum; conditions: after three weeks
How it was run: as §1

Sorghum = assay: Pre-emergence test/Greenhouse, Sorghum; conditions: after three weeks
How it was run: as §1

| Structure (SMILES) | degree of damage to the plants (% damage vs untreated control), Soya beans (Soya beans) [%] | degree of damage to the plants (% damage vs untreated control), Lolium (Lolium; 60 g of ai./ha) [%] | degree of damage to the plants (% damage vs untreated control), Poa (Poa; 60 g of ai./ha) [%] | degree of damage to the plants (% damage vs untreated control), Ambrosia (Ambrosia; 60 g of ai./ha) [%] | activity against weeds (weeds) | degree of damage to the plants (% damage vs untreated control), Maize (Maize) [%] | degree of damage to the plants (% damage vs untreated control), Matricaria (Matricaria; 60 g of ai./ha) [%] | degree of damage to the plants (% damage vs untreated control), Solanum (Solanum; 60 g of ai./ha) [%] | degree of damage to the plants (% damage vs untreated control), Sorghum (Sorghum; 60 g of ai./ha) [%] | degree of damage to the plants (% damage vs untreated control), Lolium (Lolium; 125 g of ai./ha) [%] | degree of damage to the plants (% damage vs untreated control), Poa (Poa; 125 g of ai./ha) [%] | degree of damage to the plants (% damage vs untreated control), Ambrosia (Ambrosia; 125 g of ai./ha) [%] | degree of damage to the plants (% damage vs untreated control), Matricaria (Matricaria; 125 g of ai./ha) [%] | degree of damage to the plants (% damage vs untreated control), Solanum (Solanum; 125 g of ai./ha) [%] | degree of damage to the plants (% damage vs untreated control), Sorghum (Sorghum; 125 g of ai./ha) [%] | other results |
| --- | --- | --- | --- | --- | --- | --- | --- | --- | --- | --- | --- | --- | --- | --- | --- | --- |
| C=CCOc1nn(C(=O)NS(=O)(=O)c2c(C)cccc2C(=O)OC)c(=O)n1C [Example 148] | 0 | 80 | 95 | 80 | very strong activity against weeds | 40 | 80 | 95 | 90 | – | – | – | – | – | – | – |
| CCOc1nn(C(=O)NS(=O)(=O)c2c(Cl)cccc2C(=O)OC)c(=O)n1C [Example 129] | 10 | – | – | – | very strong activity against weeds | 10 | – | – | – | – | – | – | – | – | – | degree of damage to the plants (% damage vs untreated control), Lolium (Lolium; 250 g of ai./ha): 95%; degree of damage to the plants (% damage vs untreated control), Poa (Poa; 250 g of ai./ha): 95%; degree of damage to the plants (% damage vs untreated control), Ambrosia (Ambrosia; 250 g of ai./ha): 60%; degree of damage to the plants (% damage vs untreated control), Matricaria (Matricaria; 250 g of ai./ha): 90%; degree of damage to the plants (% damage vs untreated control), Solanum (Solanum; 250 g of ai./ha): 95%; degree of damage to the plants (% damage vs untreated control), Sorghum (Sorghum; 250 g of ai./ha): 90% |
| CCOc1nn(C(=O)NS(=O)(=O)c2c(OC)cccc2C(=O)OC)c(=O)n1C [Example 136] | 20 | – | – | – | very strong activity against weeds | 30 | – | – | – | 95 | 95 | 80 | 90 | 95 | 90 | – |
| CCCOC(=O)c1cccc(C)c1S(=O)(=O)NC(=O)n1nc(CCC)n(C)c1=O [Example 47] | 10 | – | – | – | very strong activity against weeds | 10 | – | – | – | 90 | 90 | 95 | 95 | 95 | 60 | – |
| Cc1cccc(C(=O)OC(C)C)c1S(=O)(=O)NC(=O)n1nc(OC(C)C)n(C)c1=O [Example 18] | 0 | 80 | 95 | 95 | very strong activity against weeds | 10 | 95 | 95 | 90 | – | – | – | – | – | – | – |
| CCCOC(=O)c1cccc(C)c1S(=O)(=O)NC(=O)n1nc(OCC)n(C)c1=O [Example 21] | 0 | – | – | – | very strong activity against weeds | 0 | – | – | – | 95 | 95 | 95 | 95 | 95 | 95 | – |
| CCSc1nn(C(=O)NS(=O)(=O)c2c(C)csc2C(=O)OC)c(=O)n1C [Example 34] | 0 | 60 | 70 | 90 | very strong activity against weeds | 10 | 95 | 90 | 80 | – | – | – | – | – | – | – |
| CCCc1nn(C(=O)[N-]S(=O)(=O)c2c(C)cccc2C(=O)OC)c(=O)n1C.[Na+] [Example 154] | 0 | 95 | 95 | 70 | very strong activity against weeds | 0 | 70 | 90 | 95 | – | – | – | – | – | – | – |
| COC(=O)c1cccc(Cl)c1S(=O)(=O)NC(=O)n1nc(SC)n(C)c1=O [Example 130] | 0 | – | – | – | very strong activity against weeds | 10 | – | – | – | – | – | – | – | – | – | degree of damage to the plants (% damage vs untreated control), Lolium (Lolium; 250 g of ai./ha): 95%; degree of damage to the plants (% damage vs untreated control), Poa (Poa; 250 g of ai./ha): 95%; degree of damage to the plants (% damage vs untreated control), Ambrosia (Ambrosia; 250 g of ai./ha): 95%; degree of damage to the plants (% damage vs untreated control), Matricaria (Matricaria; 250 g of ai./ha): 95%; degree of damage to the plants (% damage vs untreated control), Solanum (Solanum; 250 g of ai./ha): 95%; degree of damage to the plants (% damage vs untreated control), Sorghum (Sorghum; 250 g of ai./ha): 80% |
| CCCOC(=O)c1cccc(Cl)c1S(=O)(=O)NC(=O)n1nc(OCC)n(C)c1=O [Example 134] | 20 | – | – | – | very strong activity against weeds | 0 | – | – | – | – | – | – | – | – | – | degree of damage to the plants (% damage vs untreated control), Lolium (Lolium; 500 g of ai./ha): 95%; degree of damage to the plants (% damage vs untreated control), Poa (Poa; 500 g of ai./ha): 90%; degree of damage to the plants (% damage vs untreated control), Ambrosia (Ambrosia; 500 g of ai./ha): 80%; degree of damage to the plants (% damage vs untreated control), Matricaria (Matricaria; 500 g of ai./ha): 90%; degree of damage to the plants (% damage vs untreated control), Solanum (Solanum; 500 g of ai./ha): 95%; degree of damage to the plants (% damage vs untreated control), Sorghum (Sorghum; 500 g of ai./ha): 70% |
| CCOC(=O)c1scc(C)c1S(=O)(=O)NC(=O)n1nc(C(C)C)n(C)c1=O [Example 68] | 10 | – | – | – | very strong activity against weeds | 5 | – | – | – | 80 | 90 | 95 | 100 | 95 | 60 | – |
| CCSc1nn(C(=O)NS(=O)(=O)c2c(C)cccc2C(=O)OC)c(=O)n1OC [Example 157] | 20 | 90 | 80 | 95 | very strong activity against weeds | 0 | 100 | 90 | 80 | – | – | – | – | – | – | – |
| CCOC(=O)c1cccc(Cl)c1S(=O)(=O)NC(=O)n1nc(SC)n(C)c1=O [Example 131] | 0 | – | – | – | very strong activity against weeds | 0 | – | – | – | – | – | – | – | – | – | degree of damage to the plants (% damage vs untreated control), Lolium (Lolium; 250 g of ai./ha): 95%; degree of damage to the plants (% damage vs untreated control), Poa (Poa; 250 g of ai./ha): 90%; degree of damage to the plants (% damage vs untreated control), Ambrosia (Ambrosia; 250 g of ai./ha): 95%; degree of damage to the plants (% damage vs untreated control), Matricaria (Matricaria; 250 g of ai./ha): 80%; degree of damage to the plants (% damage vs untreated control), Solanum (Solanum; 250 g of ai./ha): 95%; degree of damage to the plants (% damage vs untreated control), Sorghum (Sorghum; 250 g of ai./ha): 90% |
